For experiment [1], the target named is T1, IRE1a (Homo sapiens, UniProt O75460). The experiment is described as follows: IRE1a Endoribonuclease Nanoluciferase Assay (XBP1 luciferase reporter in 293 T cells). Type of experiment: cell-based. The settings on record: 293 T cells transfected with XBP1 luciferase reporter plasmid. As to the method:
Compounds disclosed herein were assessed for disruption of IRE1 signaling using a IRE1a Endoribonuclease Nanoluciferase Assay. Briefly, 2.5×10^6 293 T cells were seeded in a 10 cm^2 tissue culture plate. About 24 hours later, the cells were transfected with Effectene. In a 15 mL Tube, the following was added: 2 μg XBP1 luciferase reporter plasmid (PGK-Luc2-P2A-XBP1u-Nanoluciferase-PEST); 300 μl EC buffer; and 16 μl Enhancer, followed by incubation at room temp for 5 minutes. Next, 60 μl Effectene (Qiagen 301427) was added, followed by incubation at room temperature for 10 minutes. 2.6 mL cDMEM media was added. Old media was aspirated from the cells, followed by addition of 7 mL fresh media. Full transfection mixture was added dropwise to cells. Cells were incubated for 6 hours, followed by tripsinization, centrifugation and resuspension in 11 mL media. 100 uL of cells were plated per a well in a 96 well plate. A day later, stressors of choice+/− inhibitors were added. To harvest, media was aspirated from cells completely, then 50 uL 1× passive lysis buffer (Promega: E1941) was added per well and put on shaker (300 rpm) for 30 minutes at room temperature. Cells were centrifuged, and 15 uL sample per well was added to a new, opaque white 384 well plate (Corning 3570). 15 uL OneGlo (nanoluciferase kit, Promega N1630) was added. Plates were spun down, placed on shaker (300 rpm) for 10 minutes. Plates were read on luminometer, 1000 ms integration time per well. 15 uL Stop and Glo (nanoluciferase kit) was added. Plates were spun down, placed on shaker (300 rpm) for 10 minutes. Plates were read on luminometer, 1000 ms second integration time per well. Recordings are provided below in Table 4.

The target of experiment [2] is T1, IRE1a. The experiment in a line: In vitro FRET assay (XBP1 RNA probe cleavage by IRE1a). Type of experiment: biochemical. Set-up: purchased SignalChem. As to conditions: SignalChem IRE1a protein 2 nM. As to the method:
In vitro FRET assay was performed to evaluate the ability of select compounds to inhibit IRE1, the results of which are summarized in Table 3. To perform the in vitro FRET assay, 1× complete assay buffer (CAB; […] DTT, 50 mM sodium citrate pH 7.15, 1 mM magnesium acetate, 0.02% tween 20) was used to dilute SignalChem IRE1a protein to a final concentration of 2 nM. Selected compounds were serially diluted with DMSO in a non-binding black 384-well plate for a total of 15 ul in each well. 2 ul of the serially diluted compound or DMSO control were then added to new wells containing 98 ul of 1×CAB, for a total volume of 100 ul, 10 ul of which were then transferred to wells of a new plate. 5 ul of the diluted IRE1a was then added to each well. 5 ul of a […] XBP1 RNA probe was then added to each well. Fluorescence was then read over 30 minutes in kinetic mode (485/515 nm).
Two RNA probes were used, XBP1 wildtype (SEQ ID NO: 2) which is able to be spliced by active IRE1a or XBP1 mutant (SEQ ID NO: 3) which is unable to be spliced. Each probe contained a 5′ 6-FAM modification and a 3′ IOWA Black FQ modification.

A value given as a limit tells only on which side of the number the result lay.

In general, EC50 refers to the concentration that produces a half-maximal response. The term IC50 denotes the concentration that gives 50% inhibition. A higher IC50 goes with weaker potency in that assay.

T1 sequence (O75460 19-977): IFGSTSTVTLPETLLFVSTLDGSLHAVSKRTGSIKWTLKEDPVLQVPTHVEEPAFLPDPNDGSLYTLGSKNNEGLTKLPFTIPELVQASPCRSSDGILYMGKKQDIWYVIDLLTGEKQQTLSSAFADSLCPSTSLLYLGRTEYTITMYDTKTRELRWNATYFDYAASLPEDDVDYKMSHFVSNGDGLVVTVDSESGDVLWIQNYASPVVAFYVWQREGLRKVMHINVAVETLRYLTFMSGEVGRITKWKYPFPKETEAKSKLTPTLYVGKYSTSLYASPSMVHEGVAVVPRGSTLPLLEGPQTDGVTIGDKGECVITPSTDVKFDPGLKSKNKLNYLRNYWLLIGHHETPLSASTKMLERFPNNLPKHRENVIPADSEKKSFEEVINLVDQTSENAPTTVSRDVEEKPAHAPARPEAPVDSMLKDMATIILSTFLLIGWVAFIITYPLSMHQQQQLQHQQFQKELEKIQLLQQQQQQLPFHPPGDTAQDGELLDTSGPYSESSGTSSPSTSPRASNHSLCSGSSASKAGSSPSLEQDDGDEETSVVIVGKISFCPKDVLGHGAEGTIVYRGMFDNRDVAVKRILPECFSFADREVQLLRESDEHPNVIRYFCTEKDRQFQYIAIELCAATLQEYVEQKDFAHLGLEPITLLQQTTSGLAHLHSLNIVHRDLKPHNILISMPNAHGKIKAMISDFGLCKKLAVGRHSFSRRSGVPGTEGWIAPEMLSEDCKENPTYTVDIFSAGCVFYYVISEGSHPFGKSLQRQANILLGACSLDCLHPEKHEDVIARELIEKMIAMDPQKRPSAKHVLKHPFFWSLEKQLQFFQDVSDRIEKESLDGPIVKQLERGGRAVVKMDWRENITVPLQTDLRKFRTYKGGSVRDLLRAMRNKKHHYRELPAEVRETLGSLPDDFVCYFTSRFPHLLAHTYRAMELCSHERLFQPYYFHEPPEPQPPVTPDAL

`Cn1nc(NC(=O)Cc2cccc(C(F)(F)F)c2)cc1-c1cc2cnc(N[C@H]3CC[C@H](N)CC3)nc2c2ccccc12` [Compound 31, N-(5-(2-(((1r,4r)-4-aminocyclohexyl)amino)benzo[h]quinazolin-6-yl)-1-methyl-1H-pyrazol-3-yl)-2-(3-(trifluoromethyl)phenyl)acetamide] showed an EC50 in experiment [1] of over 100 nM. Also, in experiment [2], the concentration for half-maximal inhibition (IC50) is over 100 nM.

In the case of `CCc1cc(-c2cc(NC(=O)Cc3cccc(C(F)(F)F)c3)nn2C)cc2cnc(N[C@H]3CC[C@H](NCCOC)CC3)nc12` [Compound 40, N-(5-(8-ethyl-2-(((1r,4r)-4-((2-methoxyethyl)amino)cyclohexyl)amino)quinazolin-6-yl)-1-methyl-1H-pyrazol-3-yl)-2-(3-(trifluoromethyl)phenyl)acetamide], the 50% effective concentration (EC50) in experiment [1] was 50 to 100 nM. Besides, the half-maximal inhibitory concentration (IC50) in experiment [2] was at most 5 nM.

`CCc1cc(-c2cc(NC(=O)Cc3ccc(OCCCNC)c(C(F)(F)F)c3)nn2C)cc2cnc(N[C@H]3CC[C@H](N)CC3)nc12` [Compound 30, N-(5-(2-(((1r,4r)-4-aminocyclohexyl)amino)-8-ethylquinazolin-6-yl)-1-methyl-1H-pyrazol-3-yl)-2-(4-(3-(methylamino)propoxy)-3-(trifluoromethyl)phenyl)acetamide] returned a concentration for a half-maximal effect (EC50) in experiment [1] of 5 to 50 nM. The compound further returned an IC50 in experiment [2] of at most 5 nM.

In experiment [1], `CCc1cc(-c2cc(NC(=O)Nc3cc(C(F)(F)F)ccc3C(F)(F)F)nn2C)cc2cnc(N[C@H]3CC[C@H](N)CC3)nc12` [Compound 35, 1-(5-(2-(((1r,4r)-4-aminocyclohexyl)amino)-8-ethylquinazolin-6-yl)-1-methyl-1H-pyrazol-3-yl)-3-(2,5-bis(trifluoromethyl)phenyl)urea] displayed a concentration for a half-maximal effect (EC50) of 5 to 50 nM. In experiment [2], this compound had an IC50 of at most 5 nM.

Take `CCc1cc(-c2cc(NC(=O)Cc3ccc(C(F)(F)F)cc3)nn2C)cc2cnc(N[C@H]3CC[C@H](N)CC3)nc12` [Compound 6, N-(5-(2-(((1r,4r)-4-aminocyclohexyl)amino)-8-ethylquinazolin-6-yl)-1-methyl-1H-pyrazol-3-yl)-2-(4-(trifluoromethyl)phenyl)acetamide]: the EC50 in experiment [1] was over 100 nM. Further, the IC50 in experiment [2] is at most 5 nM.

For `CCc1cc(-c2cc(NC(=O)Cc3ccc(C(F)(F)F)c(F)c3)nn2C)cc2cnc(N[C@H]3CC[C@H](N)CC3)nc12` [Compound 7, N-(5-(2-(((1r,4r)-4-aminocyclohexyl)amino)-8-ethylquinazolin-6-yl)-1-methyl-1H-pyrazol-3-yl)-2-(3-fluoro-4-(trifluoromethyl)phenyl)acetamide], the concentration for a half-maximal effect (EC50) in experiment [1] is over 100 nM. The same compound yielded an IC50 in experiment [2] of at most 5 nM.

`CCc1cc(-c2cc(NC(=O)Cc3cc(C(F)(F)F)ccc3C)nn2C)cc2cnc(N[C@H]3CC[C@H](N)CC3)nc12` [Compound 34, N-(5-(2-(((1r,4r)-4-aminocyclohexyl)amino)-8-ethylquinazolin-6-yl)-1-methyl-1H-pyrazol-3-yl)-2-(2-methyl-5-(trifluoromethyl)phenyl)acetamide] yielded an EC50 in experiment [1] of 5 to 50 nM. The same compound registered a half-inhibitory concentration (IC50) in experiment [2] of at most 5 nM.

On to `CCc1cc(-c2cc(NC(=O)Cc3cccc(OC(F)(F)F)c3)nn2C)cc2cnc(N[C@H]3CC[C@H](N)CC3)nc12` [Compound 11, N-(5-(2-(((1r,4r)-4-aminocyclohexyl)amino)-8-ethylquinazolin-6-yl)-1-methyl-1H-pyrazol-3-yl)-2-(3-(trifluoromethoxy)phenyl)acetamide], for which, in experiment [1], the EC50 was over 100 nM. For the same compound, the IC50 in experiment [2] was in the range of 5 to 50 nM.

Take `CCc1cc(-c2cc(NC(=O)Cc3cc(F)ccc3C(F)(F)F)nn2C)cc2cnc(N[C@H]3CC[C@H](N)CC3)nc12` [Compound 13, N-(5-(2-(((1r,4r)-4-aminocyclohexyl)amino)-8-ethylquinazolin-6-yl)-1-methyl-1H-pyrazol-3-yl)-2-(5-fluoro-2-(trifluoromethyl)phenyl)acetamide]: in experiment [1], the EC50 is over 100 nM. Also, in experiment [2], the IC50 lay within 5 to 50 nM.

With `CCc1cc(-c2cc(NC(=O)Nc3ccc(OCCCNC)c(C(F)(F)F)c3)nn2C)cc2cnc(N[C@H]3CC[C@H](N)CC3)nc12` [Compound 29, 1-(5-(2-(((1r,4r)-4-aminocyclohexyl)amino)-8-ethylquinazolin-6-yl)-1-methyl-1H-pyrazol-3-yl)-3-(4-(3-(methylamino)propoxy)-3-(trifluoromethyl)phenyl)urea], the EC50 in experiment [1] is at most 5 nM. This compound returned an IC50 in experiment [2] of at most 5 nM.

The record behind these values is patent US10392367B2, “IRE1 small molecule inhibitors” (QUENTIS THERAPEUTICS, INC., priority 2017, dated 2019).
